The source of these data is patent publication EP1392697B1, “ANTIDEPRESSANT AZAHETEROCYCLYMETHYL DERIVATIVES OF 2,3-DIHYDRO-1,4-DIOXINO 2,3-F]QUINOLINE” (Wyeth, priority 2001, dated 2002).

One test addresses serotonin transporter. In words: 3H-paroxetine displacement binding, serotonin transporter affinity. Conditions: displacement of 3H-paroxetine from male rat frontal cortical membranes; read-out: 5-HT Transporter Affinity KI. (Loss of bound radioactivity is the signal in a displacement assay; it reports binding, not function.)
Another test has as its target human 5HT1A receptors. Briefly: [3H] 8-OH-DPAT displacement binding, 5HT1A receptor affinity. The following applies: displacement of [3H] 8-OH-DPAT; CHO cells stably transfected with human 5HT1A receptors. The source says:
8-OH-DPAT (dipropylamino-tetralin) from the 5HT1A serotonin receptor following a modification of the procedure of Hall et al., J. Neurochem.

Test [1] addresses cloned human 5HT1A receptors. In words: 35S-GTPγS binding assay, 5HT1A antagonist activity. It is filed as biochemical. The following applies: reversal of the effects of the standard agonist 8-OH-DPAT, read-out: 5HT1A Function IC50. From the text:
Agonists produce an increase in binding whereas antagonists produce no increase but rather reverse the effects of the standard agonist 8-OH-DPAT. The test compound's maximum inhibitory effect is represented as the Imax, while its potency is defined by the IC50.

Molecules are shown by their SMILES.

With `CCc1cccc2c(CC3CCN(CC4COc5ccc6nc(C)ccc6c5O4)CC3)c[nH]c12` (stereo not drawn) [Example 19, 2-({4-[(7-Ethyl-1H-indol-3-yl)methyl]piperidin-1-yl}methyl)-8-methyl-2,3-dihydro[1,4]dioxino[2,3-f]quinoline], the figures for the Ki at serotonin transporter and at human 5HT1A receptors were 11 nM and 7.38 nM, respectively. Also, in test [1], the 50% inhibitory concentration (IC50) turned out to be 169 nM.
Taken in the same sequence, the figures for `Cc1ccc2c3c(ccc2n1)OCC(CN1CCC(Cc2c[nH]c4cc(Cl)ccc24)CC1)O3` (stereo not drawn) [Example 20, 2-({4-[(6-Chloro-1H-indol-3-yl)methyl]piperidin-1-yl}methyl)-8-methyl-2,3-dihydro[1,4]dioxino[2,3-f]quinoline] were 7 nM, 25.4 nM and 666 nM.

What is called Ki is the equilibrium dissociation constant of an inhibitor or competing ligand from its target. In general, IC50 refers to the concentration that inhibits the measured activity by half.
